Assay results as given in ChEMBL document CHEMBL5380814, “Targeting Receptor-Interacting Protein Kinase 1 by Novel Benzothiazole Derivatives: Treatment of Acute Lung Injury through the Necroptosis Pathway” (J Med Chem, 2023).
Active and inactive are the calls of the source. The calls are words filed in the database; no cut-off is given here.

Columns and labels:
HT-29 [1] = assay: Cytotoxicity against human HT-29 cells incubated at 100 uM for 16 to 24 hrs measured by cell-titre glo luminescent cell viability assay; assay type: functional, cell-based; details: time 16-24 hrs
HT-29 [2] = assay: Anti-necroptotic activity in human HT-29 cells assessed as protection against human TNFalpha/Smac mimetic induced necroptosis preincubated with compound upto 10 uM for 16 to 24 hrs followed by TS stimulation for 36 hrs measured by cell-titre glo luminescent cell viability assay; assay type: functional, cell-based; details: time 52-60 hrs
Mus musculus [3] = assay: In vivo anti-necrotptic activity in mTNFalpha induced C57BL/6J SIRS mouse model assessed as survival rate pretreated at 5 mg/kg, po for 1 hr followed by mTNFalpha/Z-VAD-FMK administration measured after 40 mins relative to control; assay type: functional; details: time 100 min, 1.667 h
Mus musculus [4] = assay: In vivo anti-inflammatory activity in NNK induced induced C57BL/6J ALI mouse model assessed as decrease in inflammatory cell infiltration pretreated at 25 to 100 mg/kg, ip for 1 hr followed by NNK administration by HE staining analysis; assay type: functional, organism-based; details: dose 25-100 mg/kg
Mus musculus [5] = assay: In vivo anti-necrotoptic activity in NNK induced induced C57BL/6J ALI mouse model assessed as reduction in RIPK1 phosphorylation pretreated at 100 mg/kg, ip for 1 hr followed by NNK administration; assay type: functional; design: scale not given: the % may be the effect or the level left
[6] = target: T1, Receptor-interacting serine/threonine-protein kinase 3 (Homo sapiens, UniProt Q9Y572); assay: Inhibition of RIPK3 phosphorylation in TSZ-induced human HT-29 cells assessed as blocking of TSZ-induced necrosome formation at 1 uM pretreated with compound for 2 to 6 hrs followed by TSZ stimulation for 6 hrs measured by Western analysis; assay type: cell-based; details: time 8-12 hrs
Target sequence in this assay (Q9Y572 whole entry, looked up): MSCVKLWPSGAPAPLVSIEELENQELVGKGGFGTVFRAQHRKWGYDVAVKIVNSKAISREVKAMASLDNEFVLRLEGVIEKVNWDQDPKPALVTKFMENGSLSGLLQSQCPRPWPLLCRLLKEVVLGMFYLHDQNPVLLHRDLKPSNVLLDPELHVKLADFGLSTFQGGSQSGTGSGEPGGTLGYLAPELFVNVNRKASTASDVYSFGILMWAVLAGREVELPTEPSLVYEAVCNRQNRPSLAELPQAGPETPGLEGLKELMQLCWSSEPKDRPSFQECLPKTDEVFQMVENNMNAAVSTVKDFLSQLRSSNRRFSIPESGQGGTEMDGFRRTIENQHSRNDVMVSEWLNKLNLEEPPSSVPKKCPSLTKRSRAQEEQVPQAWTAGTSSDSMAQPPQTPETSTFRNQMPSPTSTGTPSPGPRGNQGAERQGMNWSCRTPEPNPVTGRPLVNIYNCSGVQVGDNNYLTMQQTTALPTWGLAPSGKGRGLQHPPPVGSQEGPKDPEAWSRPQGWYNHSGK

Mus musculus [7] = assay: In vivo anti-inflammatory activity in NNK induced induced C57BL/6J ALI mouse model assessed as less congestion in lung pretreated at 25 to 100 mg/kg, ip for 1 hr followed by NNK administration by HE staining analysis; assay type: functional, organism-based; details: dose 25-100 mg/kg
[8] = target: T2, Receptor-interacting serine/threonine-protein kinase 1 (Homo sapiens) (UniProt Q13546); assay: Inhibition of RIPK1 phosphorylation in TSZ-induced human HT-29 cells assessed as blocking of TSZ-induced necrosome formation at 1 uM pretreated with compound for 2 to 6 hrs followed by TSZ stimulation for 6 hrs measured by Western analysis; assay type: cell-based; details: time 8-12 hrs
T2 sequence (whole entry): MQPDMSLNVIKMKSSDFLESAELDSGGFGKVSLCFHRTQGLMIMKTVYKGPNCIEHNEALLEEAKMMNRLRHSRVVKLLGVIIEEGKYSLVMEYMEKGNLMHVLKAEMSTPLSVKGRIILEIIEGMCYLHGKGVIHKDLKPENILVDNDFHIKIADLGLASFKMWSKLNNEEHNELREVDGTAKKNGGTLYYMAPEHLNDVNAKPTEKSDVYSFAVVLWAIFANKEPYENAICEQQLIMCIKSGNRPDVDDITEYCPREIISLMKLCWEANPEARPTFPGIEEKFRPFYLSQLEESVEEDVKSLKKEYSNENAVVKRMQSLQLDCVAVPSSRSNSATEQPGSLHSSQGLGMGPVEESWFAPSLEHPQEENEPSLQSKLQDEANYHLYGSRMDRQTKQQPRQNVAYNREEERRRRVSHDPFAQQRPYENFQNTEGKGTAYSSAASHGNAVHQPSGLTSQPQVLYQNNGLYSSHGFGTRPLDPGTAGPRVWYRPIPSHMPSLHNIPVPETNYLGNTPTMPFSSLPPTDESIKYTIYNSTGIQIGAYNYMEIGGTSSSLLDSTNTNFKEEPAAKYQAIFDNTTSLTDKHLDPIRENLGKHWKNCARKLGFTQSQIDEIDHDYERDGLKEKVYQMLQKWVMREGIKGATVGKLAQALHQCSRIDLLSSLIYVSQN

[9] = target: T1, Receptor-interacting serine/threonine-protein kinase 3; assay: Inhibition of RIPK3 phosphorylation in TSZ-induced human HT-29 cells assessed as blocking of TSZ-induced necrosome formation at 0.5 uM pretreated with compound for 6 hrs followed by TSZ stimulation for 6 hrs measured by Western analysis; assay type: cell-based; details: time 12.0 hrs
Target sequence in this assay (Q9Y572 whole entry, looked up): as the sequence (Q9Y572 whole entry, looked up) above

Mus musculus [10] = assay: In vivo anti-inflammatory activity in NNK induced induced C57BL/6J ALI mouse model assessed as decrease in bronchoalveolar lavage fluid (BALF) TNF-alpha level pretreated at 25 to 100 mg/kg, ip for 1 hr followed by NNK administration; assay type: functional, organism-based; details: dose 25-100 mg/kg
[11] = target: T1, Receptor-interacting serine/threonine-protein kinase 3; assay: Binding affinity to human wildtype full length RIPK3 (M1 to Q307 residues) expressed in bacterial expression system assessed as dissociation constant by kinome scan kd select based qPCR analysis
Target sequence in this assay (Q9Y572 whole entry): as the sequence (Q9Y572 whole entry, looked up) above

[12] = target: T3, Mixed lineage kinase domain-like protein (Homo sapiens) (UniProt Q8NB16); assay: Inhibition of MLKL phosphorylation in TSZ-induced human HT-29 cells assessed as blocking of TSZ-induced necrosome formation at 1 uM pretreated with compound for 0 to 6 hrs followed by TSZ stimulation for 6 hrs measured by Western analysis; assay type: cell-based; details: time 6-12 hrs
T3 sequence (whole entry): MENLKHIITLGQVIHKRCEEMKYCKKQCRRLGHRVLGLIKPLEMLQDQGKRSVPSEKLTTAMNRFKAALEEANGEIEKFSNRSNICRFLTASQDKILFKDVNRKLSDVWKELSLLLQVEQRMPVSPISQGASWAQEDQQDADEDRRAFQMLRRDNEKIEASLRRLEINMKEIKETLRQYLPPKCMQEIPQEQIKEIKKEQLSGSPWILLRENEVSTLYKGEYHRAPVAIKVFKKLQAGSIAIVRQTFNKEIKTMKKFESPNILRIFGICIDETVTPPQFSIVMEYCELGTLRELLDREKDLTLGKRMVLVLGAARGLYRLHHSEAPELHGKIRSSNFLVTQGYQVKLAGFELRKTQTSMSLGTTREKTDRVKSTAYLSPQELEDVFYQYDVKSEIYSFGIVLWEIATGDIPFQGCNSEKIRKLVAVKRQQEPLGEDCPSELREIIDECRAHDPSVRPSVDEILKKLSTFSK

[13] = target: T4, Receptor-interacting serine/threonine-protein kinase 1 (Homo sapiens, UniProt Q13546); assay: Binding affinity to human wildtype full length RIPK1 (M1 to K305 residues) expressed in bacterial expression system assessed as dissociation constant by kinome scan kd select based qPCR analysis
T4 sequence (Q13546 whole entry): T2 sequence (whole entry)

[14] = target: T3, Mixed lineage kinase domain-like protein (Homo sapiens); assay: Inhibition of MLKLphosphorylation in TSZ-induced human HT-29 cells assessed as blocking of TSZ-induced necrosome formation upto 1 uM pretreated with compound for 6 hrs followed by TSZ stimulation for 6 hrs measured by Western analysis; assay type: cell-based; details: time 12.0 hrs
U-937 = assay: (§1) Anti-necroptotic activity in human U-937 cells assessed as protection against human TNFalpha/Smac mimetic/Z-VAD-FMK induced necroptosis preincubated with compound upto 50 nM for 16 to 24 hrs followed by TSZ stimulation for 12 hrs measured by cell-titre glo luminescent cell viability assay; assay type: functional, cell-based; details: time 28-36 hrs
HT-29 [15] = assay: as §1, with “HT-29” for “U-937”, “at” for “upto”, “assay relative to control” for “assay”; assay type: functional; details: time 28-36 hrs
Mus musculus [16] = assay: In vivo anti-inflammatory activity in NNK induced induced C57BL/6J ALI mouse model assessed as lung injury score pretreated at 100 mg/kg, ip for 1 hr followed by NNK administration relative to disease model (reference value: 5.7 +/- 0.5); assay type: functional

In the case of `CCS(=O)(=O)NC1CCC(C(=O)Nc2nc3cc(F)c(Oc4ccc(F)c(NC(=O)Cc5cccc(C(F)(F)F)c5)c4)cc3s2)CC1` (configuration not stated), the Activity (HT-29 [1]) is reported as “Active”, the Activity (HT-29 [2]) is reported as “inactive” and the Activity (Mus musculus [3]) is reported as 30%. For the same molecule, the Activity (Mus musculus [4]) was “Active”, the Activity (Mus musculus [5]) was 100% and the inhibition [6] was “Active”. For the same molecule, the Activity (Mus musculus [7]) was “Active”, the inhibition [8] was “Active” and the inhibition [9] was “Active”. The Activity (Mus musculus [10]) was “Active”, the Kd [11] was > 10000 nM and the inhibition [12] was “Active”. For the same molecule, the Kd [13] was 85 nM, the inhibition [14] was “Active” and the Activity (U-937) was “inactive”. For the same molecule, the Activity (HT-29 [15]) was 100% and the Activity (Mus musculus [16]) was 2.7.
